Source: patent US20240309066A1, “MEANS AND METHODS FOR THE TREATMENT OF CALCIUM CRYSTAL DEPOSITION DISEASES” (UNIVERSITEIT MAASTRICHT, priority 2021, published 2024)
[ ]: non-standard residue; d: D form.

B1: bFetuin: bovine Fetuin (Sigma-Aldrich, #F2379), positive control for precipitation inhibition (protein, UniProt Q58D62 19-387, looked up)
Fetuin-B: TSPPQPAARPSSLLSLDCNSSYVLDIANDILQDINRDRKDGYVLSLNRVSDAREHRQEAGLGSLFYFTLDVLETGCHVLSRTSWKNCEVRIFHESVYGQCKAIFYINKEKRIFYLPAYNCTLRPVSQSAIIMTCPDCPSTSPYDLSNPRFMETATESLAKYNSESPSKQYSLVKITKTSSQWVFGPAYFVEYLIKESPCVKSEGSSCALESPGSVPVGICHGSLGEPQGNQGKIISVTCSFFNSQAPTPRGENATVNQRPANPSKTEELQQQNTAPTNSPTKAVPKGSVQYLPDWDKKREGSQEKDPVETFPVQLDLTTNPQGESLDVSFLFQEPMEEKVVVLPFPSKEQRSAECPGPAQKGYPFILPS

Columns and labels:
[1] = Total calcium, phosphate and protein measurements in pellets of in vitro precipitates; format: biochemical; settings: 24 hours; control 14%
Procedure: To test this, particles were allowed to form for 2 or 24 hours in the presence or absence (control) of bFetuin or the peptide according to SEQ ID NO: 1. and subsequently harvested by centrifugation, washed and dissolved in acid, followed by total calcium, phosphate and protein measurements in the pellet and the supernatant.
Quantification of deposited calcium was carried out using a calcium determination kit (Randox, London, United Kingdom) according to the manufacturer's instruction, after hydrolysis of mineral deposits in 0.1M HCl. Calcium measurements were normalized to protein content using micro DC Protein Assay (Termo Scientifc, Bleiswijk, the Netherlands). To be able to measure protein content, an equal amount of 0.1M NaOH was used to neutralize the acid and 0.1% SDS (final concentration) was added to lyse cells in the cellular calcification assays.
Quantification of deposited phosphate was carried out using a phosphate colorimetric assay (Sigma, MK030) according to manufacturer's instruction after solubilisation of precipitates in 0.1M HCL.

[2] = In vitro calcium phosphate precipitation assay; format: biochemical; settings: for Precipitation inhibition: absorption measurement before SEM processing
Procedure: To evaluate the inhibitory capacity of the peptide according to SEQ ID NO: 1, we utilized a well-established in vitro calcium phosphate precipitation assay (17-19) as described in example 2.
Calcium precipitation assays were performed essentially as described before with minor adaptations (19). 2.4 mM ionic calcium (0.1M stock) was added to a 50 mM Tris/HCL buffer (pH 7.4) in 1.5 ml Eppendorf tubes. Peptide or bFetuin were added and incubated for 15 minutes at room temperature. Subsequently, 1.6 mM phosphate buffer (0.1M stock) was added and the mixture was incubated for 120 minutes at 37° C.
Data were normalized to the first positive control (normalized to 100%) in each experiment. As an internal reference for precipitation inhibition, we used 1 mg/ml, 0.5 mg/ml and 0.25 mg/ml bovine Fetuin (bFetuin, Sigma-Aldrich, #F2379) in each experiment. After 2 hours, samples were transferred to cuvettes (1.0 ml reactions) and absorbance was measured at A620 in a plate reader with a plate reader (Biorad). Each condition consisted of three biological replicates.

[3] = system: Human articular chondrocytes (HACs); assay: ATP-induced human articular chondrocyte calcification model; format: cell-based; settings: 7 days, 1 mM ATP, 20 μM peptide, vs control with ATP
Procedure: (§1) FIG. 3: Inhibition of cellular calcification of human articular chondrocytes, vascular smooth muscle cells and bone marrow stromal cells by the peptide according to SEQ ID NO: 1. Representative phase-contrast microscopy images of in vivo cell assays are shown. • A) Human articular chondrocytes (HACs) were stimulated for 7 days with 1 mM ATP and with or without 20 μM of the peptide. Results were obtained from three chondrocyte donors with three biological replicates each. • B) Vascular smooth muscle cells (VSMC) were stimulated for 7 days with 4.5 mM ionic calcium in the presence or absence of 20 μM of peptide. Results were obtained from three VSMC donors with three biological replicates each. • C) BMSCs were differentiated for 21 days in osteogenic differentiation medium containing beta-glycerophosphate (BGP) in the pre- or absence of 2.1 μM of peptide. BMSC; one donor with four biological replicates was used. • Left panels: phase-contrast images were obtained at the final day of each experiment. […] Scale bars indicate 200 μm. • Right panels: quantification of total calcium precipitation per well measured with the Randox total calcium assay and normalized to total protein. […]
(§2) Quantification of deposited calcium was carried out using a calcium determination kit (Randox, London, United Kingdom) according to the manufacturer's instruction, after hydrolysis of mineral deposits in 0.1M HCl. […]

[4] = system: Bone marrow derived stromal cells (BMSCs); assay: Beta-glycerophosphate-induced BMSC osteogenic differentiation model; format: cell-based, human; settings: 21 days osteogenic differentiation medium with BGP, 2.1 μM peptide
Procedure: as §1, §2

[5] = system: rat osteoarthritis model; assay: Rat osteoarthritis model (medial meniscal tear, collateral ligament transection); format: in vivo, Lewis rats
Procedure: FIG. 4: Intra-articular injection of the peptide ameliorates cartilage histopathology and improves animal mobility in a rat osteoarthritis model. Osteoarthritis was induced by introducing a surgical tear of the medial meniscus and transection of the collateral ligament (N=40). Bi-weekly intra-articular injections of 50 μl peptide with a concentration of 20 μM or 50 μl vehicle (0.9% NaCl) were performed (N=20 per group). Necropsy was performed at day 28, followed by histological analyses according to the OARSI scoring system.
• A) Representative toluidine blue stained tissue sections from the best, average and worst histological appearance. Cartilage tissue is stained in dark blue. • B) The OARSI score was obtained by multiplying grade and stage of cartilage damage per animal by two blinded observers. Statistical comparison was done with a two-tailed t-test. *=p. value<0.05. • C) Gait analyses score at day 20 of the experiment. Four measurements per animal were performed and each dot represents the average of one animal in the graph. Statistical significance between groups was determined with a Mann-Whitney U test. *=p. value<0.05.
We also evaluated the effect of bi-weekly intra-articular injection of the peptide in a rat osteoarthritis model (FIG. 4). Osteoarthritis was induced with a surgical tear of the medial meniscus and transection of the collateral ligament (N=40). […]

[6] = system: Vascular smooth muscle cells (VSMC); assay: Calcium-induced vascular smooth muscle cell calcification model; format: cell-based, human; settings: 7 days, 4.5 mM ionic calcium, 20 μM peptide
Procedure: as §1, with “peptide.” for “peptide. Results were obtained from three VSMC donors with three biological replicates each. • C) BMSCs were differentiated for 21 days in osteogenic differentiation medium containing beta-glycerophosphate (BGP) in the pre- or absence of 2.1 μM of peptide. BMSC; one donor with four biological replicates was used. • Left panels: phase-contrast images were obtained at the final day of each experiment.”
as §2
Human primary smooth muscle cells (VSMCs) were derived from tissue explants from patients undergoing surgery. […] Success of the isolation was determined by immunofluorescence staining for positive expression of alpha-smooth muscle actin (αSMA), smooth muscle protein 22-alpha (SM22α), phosphorylated myosin light chain 2 (pMLC) and absence of S100 C Calcium Binding Protein 4 (S100A4). […]

Molecule | phosphate content in pellet [1] [%] | Precipitation inhibition ([2]; 20 μM peptide, 2 hours) [%] | efficiency of inhibition of in vitro calcium phosphate precipitation, comparison ([2]; compared with bFetuin) | concentration range down to which activity remained ([2]; dilution series in steps of 10, 2 hours) | concentration able to statistically significantly inhibit precipitation compared to control ([2]; dilution series, 2 hours) [aM] | concentration not able to statistically significantly inhibit precipitation ([2]; dilution series, 2 hours) [aM] | inhibition of calcification [3] | inhibition of calcium precipitation [4] [%] | reduction of histopathological OA score (OARSI) ([5]; day 28 post-surgery, bi-weekly intra-articular 50 μl of 20 μM, vs vehicle) [%] | animals having a normal gait ([5]; gait analysis day 20, bi-weekly intra-articular 50 μl of 20 μM, vehicle 5/20) | inhibition of calcification [6] | Precipitation inhibition ([2]; 0.5 mg/ml bFetuin, 2 hours) [%] | inhibition of precipitation ([2]; 1 mg/ml (20.6 μM), positive control) | concentration at which the inhibitory effect is lost ([2]; dilution series, 2 hours, molar equivalent of μg/ml) [nM]
peptide according to SEQ ID NO: 1: circular polypeptide of 30 D-amino acids LIYRQPNCDDPETEEAALVAIDYIAPHGPG, D-Leucine at position 1 linked to D-Glycine at position 30 (cyclo([dL][dI][dY][dR][dQ][dP][dN][dC][dD][dD][dP][dE][dT][dE][dE][dA][dA][dL][dV][dA][dI][dD][dY][dI][dA][dP][dH]G[dP]G); SMILES CC[C@@H](C)[C@H]1NC(=O)[C@@H](C)NC(=O)[C@@H](C(C)C)NC(=O)[C@@H](CC(C)C)NC(=O)[C@@H](C)NC(=O)[C@@H](C)NC(=O)[C@@H](CCC(=O)O)NC(=O)[C@@H](CCC(=O)O)NC(=O)[C@@H]([C@H](C)O)NC(=O)[C@@H](CCC(=O)O)NC(=O)[C@H]2CCCN2C(=O)[C@@H](CC(=O)O)NC(=O)[C@@H](CC(=O)O)NC(=O)[C@@H](CS)NC(=O)[C@@H](CC(N)=O)NC(=O)[C@H]2CCCN2C(=O)[C@@H](CCC(N)=O)NC(=O)[C@@H](CCCNC(=N)N)NC(=O)[C@@H](Cc2ccc(O)cc2)NC(=O)[C@@H]([C@H](C)CC)NC(=O)[C@@H](CC(C)C)NC(=O)CNC(=O)[C@H]2CCCN2C(=O)CNC(=O)[C@@H](Cc2c[nH]cn2)NC(=O)[C@H]2CCCN2C(=O)[C@@H](C)NC(=O)[C@@H]([C@H](C)CC)NC(=O)[C@@H](Cc2ccc(O)cc2)NC(=O)[C@@H](CC(=O)O)NC1=O; listed as Homo Sapiens) | 9 | ~50 | more efficiently than bFetuin | remained active until the attomolar concentration range | 20.6 | 2.6 | 22-33% | 81 | 38 | 16/20 | 58-61% | – | – | –
B1 | 9 | – | – | – | – | – | – | – | – | – | – | ~50 | completely inhibit precipitation | 20.6 to 200.6
